# Reference: US20200085791A1, “[(PHENYLSULFONYL)OCTAHYDRO-EPIMINOISOINDOL-YL](1H-1,2,3-TRIAZOL-5-YL)METHANONES” (Bayer Pharma Aktiengesellschaft, priority 2016, published 2020)
# Target: T1, recombinant human AKR1C3 (Aldo-keto reductase family 1 member C3) (Homo sapiens, UniProt P42330)
# T1 construct: GST (cleaved yes); made in house; host or cells: E. coli
# T1 sequence (P42330 1-323): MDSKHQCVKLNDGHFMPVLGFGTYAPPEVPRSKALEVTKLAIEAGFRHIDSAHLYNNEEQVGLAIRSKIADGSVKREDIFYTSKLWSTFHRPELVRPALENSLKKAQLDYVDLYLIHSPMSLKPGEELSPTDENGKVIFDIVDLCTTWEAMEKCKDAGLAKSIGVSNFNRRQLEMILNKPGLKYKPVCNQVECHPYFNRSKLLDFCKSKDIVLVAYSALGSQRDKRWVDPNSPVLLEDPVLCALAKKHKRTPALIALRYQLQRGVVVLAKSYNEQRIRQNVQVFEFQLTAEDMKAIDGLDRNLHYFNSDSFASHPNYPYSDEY
# Assay: In Vitro Assay 1: AKR1C3-inhibitory activity (Coumberone to Coumberol fluorescence assay)
# Type: biochemical
# Settings: recombinant enzyme, Coumberone 0.3 μM, NADPH 10 μM, 15 min pre-incubation, 4-parameter fit; average or median values
# Summary of the method: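 Recombinant human AKR1C3 (E. coli-expressed GST fusion, GST removed), typically ~1 nM, was preincubated 15 min with compound in 50 mM potassium phosphate pH 7 with 1 mM DTT. The reaction ran typically 90 min with 10 μM NADPH and 0.3 μM Coumberone (final), then was stopped with 1 μM EM-1404. Coumberol fluorescence (ex 380/em 520 nm) was normalized to no-inhibitor and no-enzyme controls.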
row,IC50,Structure (SMILES)
1,39 nM,"Cc1cccc(S(=O)(=O)N2[C@@H]3CC[C@H]2[C@H]2CN(C(=O)c4cnn[nH]4)C[C@H]23)c1 [Example 23, {(3aR,4S,7R,7aS)-8-[(3-methylphenyl)sulfonyl]octahydro-2H-4,7-epiminoisoindol-2-yl}(1H-1,2,3-triazol-5-yl)methanone]"
2,9 nM,"O=C(c1cnn[nH]1)N1[C@@H]2CC[C@H]1[C@H]1CN(S(=O)(=O)c3ccccc3C(F)(F)F)C[C@H]12 [Example 29, 1H-1,2,3-triazol-5-yl[(3aR,4S,7R,7aS)-2-{[2-(trifluoromethyl)phenyl]sulfonyl}octahydro-1H-4,7-epiminoisoindol-8-yl]methanone]"
3,121 nM,"O=C(c1c[nH]nn1)N1[C@@H]2CC[C@H]1[C@H]1CN(S(=O)(=O)c3cccc(S(F)(F)(F)(F)F)c3)C[C@H]12 [Example 10, [(3aR,4S,7R,7aS)-2-{[3-(pentafluoro-λ^6-sulfanyl)phenyl]sulfonyl}octahydro-1H-4,7-epiminoisoindol-8-yl](1H-1,2,3-triazol-4-yl)methanone]"
4,3 nM,"Cc1cccc(Cl)c1S(=O)(=O)N1[C@@H]2CC[C@H]1[C@@H]1CN(C(=O)c3cnn[nH]3)C[C@@H]12 [Example 40, {(3aR,4R,7S,7aS)-8-[(2-chloro-6-methylphenyl)sulfonyl]octahydro-2H-4,7-epiminoisoindol-2-yl}(1H-1,2,3-triazol-5-yl)methanone]"
5,45 nM,"COc1cc(F)ccc1S(=O)(=O)N1[C@@H]2CC[C@H]1[C@@H]1CN(C(=O)c3cnn[nH]3)C[C@@H]12 [Example 65, {(3aR,4R,7S,7aS)-8-[(4-fluoro-2-methoxyphenyl)sulfonyl]octahydro-2H-4,7-epiminoisoindol-2-yl}(1H-1,2,3-triazol-5-yl)methanone]"
6,113 nM,"O=C(c1cnn[nH]1)N1C[C@@H]2[C@H](C1)[C@@H]1CC[C@H]2N1S(=O)(=O)c1ccc(F)cc1 [Example 22, {(3aR,4S,7R,7aS)-8-[(4-fluorophenyl)sulfonyl]octahydro-2H-4,7-epiminoisoindol-2-yl}(1H-1,2,3-triazol-5-yl)methanone]"
7,13 nM,"COc1ccccc1S(=O)(=O)N1[C@@H]2CC[C@H]1[C@@H]1CN(C(=O)c3cnn[nH]3)C[C@@H]12 [Example 54, {(3aR,4R,7S,7aS)-8-[(2-methoxyphenyl)sulfonyl]octahydro-2H-4,7-epiminoisoindol-2-yl}(1H-1,2,3-triazol-5-yl)methanone]"
8,45 nM,"COc1ccccc1S(=O)(=O)N1[C@@H]2CC[C@H]1[C@H]1CN(C(=O)c3c[nH]nn3)C[C@H]12 [Example 15, {(3aR,4S,7R,7aS)-8-[(2-methoxyphenyl)sulfonyl]octahydro-2H-4,7-epiminoisoindol-2-yl}(1H-1,2,3-triazol-4-yl)methanone]"
9,110 nM,"COc1cc(C)ccc1S(=O)(=O)N1[C@@H]2CC[C@H]1[C@@H]1CN(C(=O)c3cnn[nH]3)C[C@@H]12 [Example 58, {(3aR,4R,7S,7aS)-8-[(2-methoxy-4-methylphenyl)sulfonyl]octahydro-2H-4,7-epiminoisoindol-2-yl}(1H-1,2,3-triazol-5-yl)methanone]"
10,327 nM,"Cc1ccc(S(=O)(=O)N2[C@@H]3CC[C@H]2[C@H]2CN(C(=O)c4cnn[nH]4)C[C@H]23)cc1 [Example 21, {(3aR,4S,7R,7aS)-8-[(4-methylphenyl)sulfonyl]octahydro-2H-4,7-epiminoisoindol-2-yl}(1H-1,2,3-triazol-5-yl)methanone]"
11,12 nM,"O=C(c1cnn[nH]1)N1C[C@@H]2[C@H](C1)[C@H]1CC[C@@H]2N1S(=O)(=O)c1cccc(F)c1Cl [Example 64, {(3aR,4R,7S,7aS)-8-[(2-chloro-3-fluorophenyl)sulfonyl]octahydro-2H-4,7-epiminoisoindol-2-yl}(1H-1,2,3-triazol-5-yl)methanone]"
